The target in this assay is T1, recombinant 15-PGDH (Homo sapiens, UniProt P15428).
T1 sequence (P15428 1-266): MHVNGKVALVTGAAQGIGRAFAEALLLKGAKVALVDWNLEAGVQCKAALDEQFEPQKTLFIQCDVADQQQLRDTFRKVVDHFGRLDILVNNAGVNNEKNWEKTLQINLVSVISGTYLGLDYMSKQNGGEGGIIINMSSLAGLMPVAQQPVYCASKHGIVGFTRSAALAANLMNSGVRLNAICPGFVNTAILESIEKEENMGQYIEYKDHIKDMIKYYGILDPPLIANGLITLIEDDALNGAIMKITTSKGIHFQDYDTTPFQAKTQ
Type of assay: biochemical. To be noted: recombinant human 15-PGDH, in vitro; read-out: PDGH Assay-IC50.

SMILES strings stand for the structures. Some results are limits rather than exact numbers.

What is called IC50 is the concentration that inhibits the measured activity by half.

Source text: The Recombinant 15-PGDH is human unless otherwise specified.

Consider `COCCC[S+]([O-])c1sc2nc(-c3cnc(C)nc3)cc(C(F)(F)F)c2c1N` (stereo not shown) [Example 136], for which the IC50 fell in the range of 2.5 to 10 nM.

Regarding `COCCC[S@@+]([O-])c1sc2nc(-c3cnc(N)nc3)cc(C(F)(F)F)c2c1N` [Example 203], the IC50 was less than 2.5 nM.

Take `CC(=O)N1CCC(c2cc(-c3ccc(F)cc3)c3c(N)c([S+]([O-])C4CCC4)sc3n2)CC1` (stereo not shown) [Example 59]: the IC50 was not below 10 nM.

For `CNC(=O)c1ncc(-c2cc(-c3ccccc3)c3c(N)c([S+]([O-])C4CCC4)sc3n2)cn1` (stereo not shown) [Example 53], the IC50 was less than 2.5 nM.

Consider `Cc1nn(C)cc1-c1cc(-c2cnc(N)nc2)nc2sc([S+]([O-])C3CCC3)c(N)c12` (stereo not shown) [Example 218], for which the IC50 is less than 2.5 nM.

For `Nc1c([S+]([O-])C2CCC2)sc2nc(-c3cncnc3)cc(-c3ccc(OCCO)cc3)c12` (stereo not shown) [Example 183], the half-maximal inhibitory concentration (IC50) is less than 2.5 nM.

Take `COCC[S+]([O-])c1sc2nc(-c3cnc(N4CC(O)C4)nc3)cc(-c3ccccc3)c2c1N` (stereo not shown) [Example 300]: the concentration for half-maximal inhibition (IC50) was in the range of 2.5 to 10 nM.

With `COCC[S+]([O-])c1sc2nc(-c3ccc4[nH]nnc4c3)cc(-c3ccnn3C)c2c1N` (stereo not shown) [Example 214], the IC50 is less than 2.5 nM.

Turning to `COCCC[S+]([O-])c1sc2nc(-c3cnc(NCCO)nc3)cc(-c3ccccc3)c2c1N` (stereo not shown) [Example 125], the half-inhibitory concentration (IC50) is less than 2.5 nM.

Take `COCC[S+]([O-])c1sc2nc(-c3cnc4nn(C)nc4c3)cc(-c3ccnn3C)c2c1N` (stereo not shown) [Example 380]: the 50% inhibitory concentration (IC50) is less than 2.5 nM.

With `COCCC[S@@+]([O-])c1sc2nc(-c3cncnc3)cc(-c3ncccn3)c2c1N` [Example 111], the 50% inhibitory concentration (IC50) was less than 2.5 nM.

Regarding `COCCC[S+]([O-])c1sc2nc(-c3ccc(=O)n(C)c3)cc(-c3ccccc3)c2c1N` (stereo not shown) [Example 161], the IC50 is less than 2.5 nM.

Regarding `COCC[S+]([O-])c1sc2nc(-c3cnc4nn(C)cc4c3)cc(-c3ccccc3)c2c1N` (stereo not shown) [Example 124], the IC50 was less than 2.5 nM.

`Nc1c([S+]([O-])C2CCC2)sc2nc(-c3cnc(NCCO)nc3)cc(-c3ccc(Cl)cc3)c12` (stereo not shown) [Example 159]: the IC50 is less than 2.5 nM.

For `Nc1c([S+]([O-])C2CCC2)sc2nc(-c3cncnc3)cc(-c3ncccn3)c12` (stereo not shown) [Example 98], the half-inhibitory concentration (IC50) was less than 2.5 nM.

For `Cn1cnc(-c2cc(-c3cncnc3)nc3sc([S@+]([O-])C4CCC4)c(N)c23)c1` [Example 64], the half-maximal inhibitory concentration (IC50) was less than 2.5 nM.

As to `COCC[S@@+]([O-])c1sc2nc(-c3cnc4nn(C)cc4c3)cc(C(C)C)c2c1N` [Example 408], the IC50 was less than 2.5 nM.

Consider `Nc1c([S+]([O-])C2CCC2)sc2nc(-c3cccnc3)cc(C(F)(F)F)c12` (stereo not shown) [Example 58], for which the IC50 is less than 2.5 nM.

On to `COCCC[S@+]([O-])c1sc2nc(-c3cncnc3)cc(C(F)(F)F)c2c1N` [Example 201], for which the half-maximal inhibitory concentration (IC50) is not below 10 nM.

In the case of `Nc1c([S@+]([O-])C2CCC2)sc2nc(-c3cnc(NCCO)nc3)cc(C3CCC3)c12` [Example 306], the IC50 is less than 2.5 nM.

For `Cn1cc2cc(-c3cc(-c4ccnn4C)c4c(N)c([S+]([O-])C5CCC5)sc4n3)cnc2n1` (stereo not shown) [Example 333], the concentration for half-maximal inhibition (IC50) is less than 2.5 nM.

For the compound `COCCC[S+]([O-])c1sc2nc(-c3cncnc3)cc(-c3ccnnc3)c2c1N` (stereo not shown) [Example 240], the half-maximal inhibitory concentration (IC50) was 2.5 to 10 nM.

For `COCCn1ccc(-c2cc(-c3cnc4nn(C)cc4c3)nc3sc([S+]([O-])CCOC)c(N)c23)n1` (stereo not shown) [Example 386], the IC50 is less than 2.5 nM.

In the case of `COCCC[S@+]([O-])c1sc2nc(-c3cnc4c(cnn4C)c3)cc(-c3cccnc3)c2c1N` [Example 102], the half-maximal inhibitory concentration (IC50) was not below 10 nM.

`COCCC[S+]([O-])c1sc2nc(-c3cnc4nn(C)cc4c3)cc(-c3cccnc3)c2c1N` (stereo not shown) [Example 75]: the IC50 was less than 2.5 nM.

Regarding `COCC[S@@+]([O-])c1sc2nc(-c3cnc4nn(C)cc4c3)cc(-c3ccn(C)n3)c2c1N` [Example 343], the IC50 is less than 2.5 nM.

Take `CN(C)CCOc1ncc(-c2cc(-c3ccccc3)c3c(N)c([S+]([O-])C4CCC4)sc3n2)cn1` (stereo not shown) [Example 47]: the IC50 lay in the range of 2.5 to 10 nM.

For `Cn1nccc1-c1cc(-c2cnc(NCCO)nc2)nc2sc([S@+]([O-])C3CCC3)c(N)c12` [Example 313], the IC50 was less than 2.5 nM.

In the case of `Nc1c([S@@+]([O-])C2CCC2)sc2nc(-c3cnc(NCCO)nc3)cc(-c3ncccc3F)c12` [Example 182], the concentration for half-maximal inhibition (IC50) was not below 10 nM.

As for `COCC[S@+]([O-])c1sc2nc(-c3cnc4ncn(C)c4c3)cc(C3CCC3)c2c1N` [Example 367], the IC50 is not below 10 nM.

On to `COCC[S+]([O-])c1sc2nc(-c3cnc4ncnn4c3)cc(-c3ccccc3)c2c1N` (stereo not shown) [Example 399], for which the half-maximal inhibitory concentration (IC50) is less than 2.5 nM.

`Cc1ncc(-c2cc(-c3cnn(C)c3)c3c(N)c([S+]([O-])C4CCC4)sc3n2)cn1` (stereo not shown) [Example 281]: the IC50 is less than 2.5 nM.

For `COCCC[S+]([O-])c1sc2nc(-c3cncnc3)cc(C)c2c1N` (stereo not shown) [Example 163], the IC50 is less than 2.5 nM.

Turning to `CNc1ncc(-c2cc(-c3ccnn3C)c3c(N)c([S@+]([O-])CCOC)sc3n2)cn1` [Example 331], the concentration for half-maximal inhibition (IC50) is less than 2.5 nM.

For `CN(C)CCNc1ncc(-c2cc(-c3ccccc3)c3c(N)c([S+]([O-])C4CCC4)sc3n2)cn1` (stereo not shown) [Example 45], the 50% inhibitory concentration (IC50) is not below 10 nM.

Take `COCCC[S+]([O-])c1sc2nc(-c3cnc4nn(CCO)cc4c3)cc(-c3ccccc3)c2c1N` (stereo not shown) [Example 269]: the concentration for half-maximal inhibition (IC50) was less than 2.5 nM.

With `Nc1c([S@+]([O-])C2CCC2)sc2nc(-c3cnc(NCCO)nc3)cc(-c3ccccn3)c12` [Example 94], the IC50 is less than 2.5 nM.

In the case of `COCCC[S+]([O-])c1sc2nc(-c3ccnnc3)cc(-c3ccccc3)c2c1N` (stereo not shown) [Example 209], the IC50 is less than 2.5 nM.

Turning to `COCC[S+]([O-])c1sc2nc(-c3cnc(N)nc3)cc(-c3ccccc3)c2c1N` (stereo not shown) [Example 73], the IC50 was less than 2.5 nM.

For the compound `Cn1cc2cc(-c3cc(-c4ccc(OCCO)cc4)c4c(N)c([S+]([O-])C5CCC5)sc4n3)cnc2n1` (stereo not shown) [Example 283], the IC50 was less than 2.5 nM.

For the compound `Nc1c([S+]([O-])C2CCC2)sc2nc(-c3cccnc3)nc(C3CC3)c12` (stereo not shown) [Example 189], the IC50 was less than 2.5 nM.

With `Cn1nccc1-c1cc(-c2cnc3c(=O)n(C)ccc3c2)nc2sc([S+]([O-])C3CCC3)c(N)c12` (stereo not shown) [Example 216], the IC50 is less than 2.5 nM.

Turning to `Nc1c([S+]([O-])C2CCC2)sc2nc(-c3cnc(NCCN4CCS(=O)(=O)CC4)nc3)cc(-c3ccccc3)c12` (stereo not shown) [Example 142], the IC50 was less than 2.5 nM.

For the compound `COCC[S+]([O-])c1sc2nc(-c3cccnc3)cc(C(F)(F)F)c2c1N` (stereo not shown) [Example 57], the IC50 is less than 2.5 nM.

`COCCC[S+]([O-])c1sc2nc(-c3cncnc3)cc(C3CC3)c2c1N` (stereo not shown) [Example 106]: the half-maximal inhibitory concentration (IC50) was less than 2.5 nM.

As to `Nc1c([S+]([O-])C2CCC2)sc2nc(-c3cnc(N4CC(O)C4)nc3)cc(-c3ccccc3)c12` (stereo not shown) [Example 248], the IC50 was less than 2.5 nM.

For `Cn1nccc1-c1cc(-c2cnc3ncn(C)c3c2)nc2sc([S@@+]([O-])C3CCC3)c(N)c12` [Example 372], the IC50 is not below 10 nM.

With `COCC[S+]([O-])c1sc2nc(-c3ccc(N)nc3)cc(C(F)(F)F)c2c1N` (stereo not shown) [Example 135], the IC50 is 2.5 to 10 nM.

Consider `Nc1c([S+]([O-])C2CCC2)sc2nc(-c3cnn(CCO)c3)cc(-c3ccccc3)c12` (stereo not shown) [Example 272], for which the IC50 is less than 2.5 nM.

On to `CN(C)C(=O)c1ncc(-c2cc(-c3ccccc3)c3c(N)c([S+]([O-])C4CCC4)sc3n2)cn1` (stereo not shown) [Example 61], for which the concentration for half-maximal inhibition (IC50) lay in the range of 2.5 to 10 nM.

For the compound `Nc1ncc(-c2cc(-c3ccno3)c3c(N)c([S+]([O-])C4CCC4)sc3n2)cn1` (stereo not shown) [Example 350], the IC50 was less than 2.5 nM.

As for `COCC[S+]([O-])c1sc2nc(-c3cnc4ncn(C)c4c3)cc(-c3ccccc3)c2c1N` (stereo not shown) [Example 361], the IC50 was less than 2.5 nM.

`Cn1ccc(-c2cc(-c3cncnc3)nc3sc([S+]([O-])C4CCC4)c(N)c23)n1` (stereo not shown) [Example 280]: the concentration for half-maximal inhibition (IC50) is less than 2.5 nM.

Consider `COCC[S@+]([O-])c1sc2nc(-c3cccnc3)cc(C(F)(F)F)c2c1N` [Example 81], for which the 50% inhibitory concentration (IC50) is not below 10 nM.

Consider `COCC[S@+]([O-])c1sc2nc(-c3cnc4nn(C)cc4c3)nc(-c3ccccc3)c2c1N` [Example 434], for which the concentration for half-maximal inhibition (IC50) was not below 10 nM.

`Nc1c([S+]([O-])C2CCC2)sc2nc(-c3cncnc3)cc(-c3ccc(C4COC4)cc3)c12` (stereo not shown) [Example 114]: the IC50 is less than 2.5 nM.

Turning to `COCC[S+]([O-])c1sc2nc(-c3cnc4nn(C)cc4c3)cc(-c3ccnn3C)c2c1N` (stereo not shown) [Example 334], the half-maximal inhibitory concentration (IC50) is less than 2.5 nM.

On to `COCC[S+]([O-])c1sc2nc(-c3cncnc3)cc(-c3ccccc3)c2c1N` (stereo not shown) [Example 72], for which the 50% inhibitory concentration (IC50) is less than 2.5 nM.

As for `COCCC[S@@+]([O-])c1sc2nc(-c3cncnc3)cc(C3CC3)c2c1N` [Example 153], the concentration for half-maximal inhibition (IC50) is less than 2.5 nM.

Consider `Cn1cc(-c2cc(C3CC3)c3c(N)c([S+]([O-])C4CCC4)sc3n2)cn1` (stereo not shown) [Example 277], for which the IC50 was less than 2.5 nM.

In the case of `Cn1nccc1-c1cc(-c2cncnc2)nc2sc([S+]([O-])C3CCC3)c(N)c12` (stereo not shown) [Example 195], the IC50 was less than 2.5 nM.

`Nc1ncc(-c2cc(-c3ccc(F)cn3)c3c(N)c([S+]([O-])C4CCC4)sc3n2)cn1` (stereo not shown) [Example 66]: the IC50 is less than 2.5 nM.

Consider `Nc1c([S+]([O-])C2CCC2)sc2nc(-c3cnc(NCCOCCO)nc3)cc(-c3ccccc3)c12` (stereo not shown) [Example 141], for which the concentration for half-maximal inhibition (IC50) is less than 2.5 nM.

On to `CNc1ncc(-c2cc(-c3ncccn3)c3c(N)c([S+]([O-])C4CCC4)sc3n2)cn1` (stereo not shown) [Example 329], for which the IC50 was less than 2.5 nM.

`COCCC[S@+]([O-])c1sc2nc(-c3cccnc3)cc(C(F)(F)F)c2c1N` [Example 79]: the IC50 was not below 10 nM.

As for `Nc1c([S+]([O-])C2CCC2)sc2nc(-c3cnc(NCCO)nc3)cc(-c3ccccc3F)c12` (stereo not shown) [Example 152], the half-inhibitory concentration (IC50) is less than 2.5 nM.

Regarding `COCC[S+]([O-])c1sc2nc(-c3cncnc3)cc(-c3ccn(C)n3)c2c1N` (stereo not shown) [Example 337], the IC50 was less than 2.5 nM.
